Test results taken from patent US11219636B2, “Compositions and methods for treating cancer” (priority 2015, dated 2022).

Key:
p53 = p53 transcription activity by GFP reporter in HCT116 cells transfected with RGC-mazE-IRES-GFP plasmid; format: cell-based, human
Procedure: In order to test the ability of p53 to bind to its responsive element and stimulate transcription, HCT116 cells were transfected with RGC-mazE-IRES-GFP plasmid. Since p53 is degraded in un-activated cells, the present inventors used Quercetin, a ubiquitous bioactive plant flavonoid that is able to induce p53 phosphorylation, stabilization and total p53 protein accumulation. Another widely used p53 inducer is the antimetabolite agent 5-FU. P53 transcription activity was evaluated by measuring the expression of the downstream reporter gene, GFP.

p53 target genes = experiment: Transcription of p53 target genes, Western blot and semi-quantitative PCR; format: cell-based, human; settings: 50 μM, 24 hours, HCT116 p53 WT cells
Procedure: FIGS. 14A-C are Western blot analyses of p53 (FIG. 14A), p21 (FIG. 14B) and Tubulin (FIG. 14C) of HCT116 cells after treatment with 5FU. HCT116 cells were treated with 50 μM 5FU for 24 hours. Then, total cell lysate was prepared and subjected to Western blot analysis for p53 (FIG. 14A) and p21 (FIG. 14B) analysis. Tubulin (FIG. 14C) was used as a loading control and in the analyses of both proteins for normalization.
FIGS. 15A-B depict mRNA levels of various transcripts following treatment of HCT116 cells with 5FU. HCT116 cells were treated with 50 μM 5FU for 24 hours. Then, RNA was prepared and used as a template for cDNA and semi-quantitative PCR was performed for the following transcripts: p21, Bax, Noxa, Puma, MDM2, 14-3-3o, CD95, Btg2, GADD45, and Survivin. The graph represents the quantification of mRNA levels performed using the primers listed in Table 2 in the EXAMPLES section which follows.
Further validation of endogenous p53 activation led the present inventors to test other canonical target genes. 5-FU (50 μM) was added to HCT116 p53 WT cells for 24 hours. Total cell lysate was prepared and subjected into Western blot analysis and at the same time RNA was prepared and used as a template for cDNA and semi-quantitative PCR was performed. […] In particular a tight correlation between p21 and p53 protein levels (FIGS. 14A-C).

Compound	increase of GFP expression (p53; 50 μM)	cell toxicity (cell death) (HCT116 cells; transfected HCT116 cells) [%]	GFP expression (p53; 10 μM, compared with Quercetin)	cell toxicity (HCT116 cells; even very high doses (data not shown))	mRNA and protein of p53 target genes (p53 target genes)
O=c1c(O)c(-c2ccc(O)c(O)c2)oc2cc(O)cc(O)c12 [Quercetin]	about 10 folds	60			
O=c1[nH]cc(F)c(=O)[nH]1 [5-FU]			significantly higher expression levels of GFP	no toxicity	up regulation
